Results taken from patent US10959432B2, “Microbiocidal oxadiazole derivatives” (Syngenta Participations AG, priority 2016, dated 2021).

How the values were obtained:
Phakopsora pachyrhizi = assay: Fungicidal activity against Phakopsora pachyrhizi / soybean / leaf disc preventative (Asian soybean rust); format: in vivo; settings: foliar, 200 ppm in the applied formulation, soybean leaf disks, preventative (inoculated one day after application), assessed 12 to 14 days after application, read-out: disease control compared to untreated control leaf disks
Procedure: (§1) Leaf disks or leaf segments of various plant species are cut from plants grown in a greenhouse. The cut leaf disks or segments are placed in multiwell plates (24-well format) onto water agar. The leaf disks are sprayed with a test solution before (preventative) or after (curative) inoculation. Compounds to be tested are prepared as DMSO solutions (max. 10 mg/ml) which are diluted to the appropriate concentration with 0.025% Tween20 just before spraying. The inoculated leaf disks or segments are incubated under defined conditions (temperature, relative humidity, light, etc.) according to the respective test system. A single evaluation of disease level is carried out 3 to 14 days after inoculation, depending on the pathosystem. Percent disease control relative to the untreated check leaf disks or segments is then calculated. General Examples of Liquid Culture Tests in Well Plates:
Example 3: Fungicidal Activity Against Phakopsora pachyrhizi/Soybean/Leaf Disc Preventative (Asian Soybean Rust)
Soybean leaf disks are placed on water agar in multiwell plates (24-well format) and sprayed with the formulated test compound diluted in water. One day after application leaf discs are inoculated by spraying a spore suspension on the lower leaf surface. After an incubation period in a climate cabinet of 24-36 hours in darkness at 20° C. and 75% rh leaf disc are kept at 20° C. with 12 h light/day and 75% rh. The activity of a compound is assessed as percent disease control compared to untreated when an appropriate level of disease damage appears in untreated check leaf disks (12 to 14 days after application).
(§2) The following compounds at 200 ppm in the applied formulation give at least 80% disease control in this test when compared to untreated control leaf disks under the same conditions, which show extensive disease development.

[1] = system: Glomerella laqenarium (Colletotrichum lagenarium); assay: Fungicidal activity against Glomerella lagenarium (Colletotrichum lagenarium) liquid culture / cucumber / preventative (anthracnose); format: cell-based; settings: Colletotrichum orbiculare; 20 ppm in the applied formulation; liquid culture in PDB, 24° C., 3 to 4 days after application; read-out: disease control compared to untreated control (inhibition of growth measured photometrically)
Procedure: Mycelia fragments or conidia suspensions of a fungus prepared either freshly from liquid cultures of the fungus or from cryogenic storage, are directly mixed into nutrient broth. DMSO solutions of the test compound (max. 10 mg/ml) are diluted with 0.025% Tween20 by a factor of 50 and 10 μl of this solution is pipetted into a microtiter plate (96-well format). The nutrient broth containing the fungal spores/mycelia fragments is then added to give an end concentration of the tested compound. The test plates are incubated in the dark at 24° C. and 96% relative humidity. The inhibition of fungal growth is determined photometrically after 2 to 7 days, depending on the pathosystem, and percent antifungal activity relative to the untreated check is calculated.
Example 4: Fungicidal Activity Against Glomerella laqenarium (Colletotrichum lagenarium) Liquid Culture/Cucumber/Preventative (Anthracnose)
Conidia of the fungus from cryogenic storage are directly mixed into nutrient broth (PDB—potato dextrose broth). After placing a (DMSO) solution of test compound into a microtiter plate (96-well format), the nutrient broth containing the fungal spores is added. The test plates are incubated at 24° C. and the inhibition of growth is measured photometrically 3 to 4 days after application.
The following compounds at 20 ppm in the applied formulation give at least 80% disease control in this test when compared to untreated control under the same conditions, which show extensive disease development.

[2] = system: Puccinia recondita f. sp. tritici; assay: Fungicidal activity against Puccinia recondita f. sp. tritici / wheat / leaf disc preventative (brown rust); format: in vivo; settings: foliar, 200 ppm in the applied formulation, wheat leaf segments cv. Kanzler, preventative (inoculated 1 day after application), assessed 7 to 9 days after application, read-out: disease control compared to untreated control leaf disks
Procedure: as §1
Example 1: Fungicidal Activity Against Puccinia recondita f. sp. tritici/Wheat/Leaf Disc Preventative (Brown Rust)
Wheat leaf segments cv. Kanzler were placed on agar in multiwell plates (24-well format) and sprayed with the formulated test compound diluted in water. The leaf disks were inoculated with a spore suspension of the fungus 1 day after application. The inoculated leaf segments were incubated at 19C and 75% relative humidity (rh) under a light regime of 12 hours light/12 hours darkness in a climate cabinet and the activity of a compound was assessed as percent disease control compared to untreated when an appropriate level of disease damage appears in untreated check leaf segments (7 to 9 days after application).
as §2

[3] = system: Puccinia recondita f. sp. tritici; assay: Fungicidal activity against Puccinia recondita f. sp. tritici / wheat / leaf disc curative (brown rust); format: in vivo; settings: foliar, 200 ppm in the applied formulation, wheat leaf segments cv. Kanzler, curative (applied 1 day after inoculation), assessed 6 to 8 days after application, read-out: disease control compared to untreated control leaf disks
Procedure: as §1
Example 2: Fungicidal Activity Against Puccinia recondita f. sp. Tritici/Wheat/Leaf Disc Curative (Brown Rust)
Wheat leaf segments cv. Kanzler are placed on agar in multiwell plates (24-well format). The leaf segments are then inoculated with a spore suspension of the fungus. Plates were stored in darkness at 19° C. and 75% relative humidity. The formulated test compound diluted in water was applied 1 day after inoculation. The leaf segments were incubated at 19° C. and 75% relative humidity under a light regime of 12 hours light/12 hours darkness in a climate cabinet and the activity of a compound was assessed as percent disease control compared to untreated when an appropriate level of disease damage appears in untreated check leaf segments (6 to 8 days after application).
as §2

CCN(CC)C(=O)c1ccc(-c2noc(C(F)(F)F)n2)cc1 [Compound 3a.30, N,N-diethyl-4-[5-(trifluoromethyl)-1,2,4-oxadiazol-3-yl]benzamide]
≥ 80%: pest or weed control at 200 ppm (Phakopsora pachyrhizi) | inhibition at 20 ppm [1] | pest or weed control at 200 ppm [2] | pest or weed control at 200 ppm [3]

C=C(C)CN(CC)C(=O)c1ccc(-c2noc(C(F)(F)F)n2)cc1 [Compound 3a.31, N-ethyl-N-(2-methylallyl)-4-[5-(trifluoromethyl)-1,2,4-oxadiazol-3-yl]benzamide]
≥ 80%: pest or weed control at 200 ppm (Phakopsora pachyrhizi) | inhibition at 20 ppm [1] | pest or weed control at 200 ppm [2] | pest or weed control at 200 ppm [3]

CC(C)(C)NC(=O)c1ccc(-c2noc(C(F)(F)F)n2)cc1 [Compound 3a.32, N-tert-butyl-4-[5-(trifluoromethyl)-1,2,4-oxadiazol-3-yl]benzamide]
≥ 80%: pest or weed control at 200 ppm (Phakopsora pachyrhizi) | inhibition at 20 ppm [1] | pest or weed control at 200 ppm [2] | pest or weed control at 200 ppm [3]

CCCN(C)C(=O)c1ccc(-c2noc(C(F)(F)F)n2)cc1 [Compound 3a.33, N-methyl-N-propyl-4-[5-(trifluoromethyl)-1,2,4-oxadiazol-3-yl]benzamide]
≥ 80%: pest or weed control at 200 ppm (Phakopsora pachyrhizi) | inhibition at 20 ppm [1] | pest or weed control at 200 ppm [2] | pest or weed control at 200 ppm [3]

CCN(C(=O)c1ccc(-c2noc(C(F)(F)F)n2)cc1)C(C)C [Compound 3a.34, N-ethyl-N-isopropyl-4-[5-(trifluoromethyl)-1,2,4-oxadiazol-3-yl]benzamide]
≥ 80%: pest or weed control at 200 ppm (Phakopsora pachyrhizi) | inhibition at 20 ppm [1] | pest or weed control at 200 ppm [2] | pest or weed control at 200 ppm [3]

CN(C(=O)c1ccc(-c2noc(C(F)(F)F)n2)cc1)C(C)(C)C [Compound 3a.35, N-tert-butyl-N-methyl-4-[5-(trifluoromethyl) 1,2,4-oxadiazol-3-yl]benzamide]
≥ 80%: pest or weed control at 200 ppm (Phakopsora pachyrhizi) | inhibition at 20 ppm [1] | pest or weed control at 200 ppm [2] | pest or weed control at 200 ppm [3]

CCCCN(C)C(=O)c1ccc(-c2noc(C(F)(F)F)n2)cc1 [Compound 3a.36, N-butyl-N-methyl-4-[5-(trifluoromethyl)-1,2,4-oxadiazol-3-yl]benzamide]
≥ 80%: pest or weed control at 200 ppm (Phakopsora pachyrhizi) | inhibition at 20 ppm [1] | pest or weed control at 200 ppm [2] | pest or weed control at 200 ppm [3]

COCC(C)NC(=O)c1ccc(-c2noc(C(F)(F)F)n2)cc1 (stereo not shown) [Compound 3a.37, N-(2-methoxy-1-methyl-ethyl)-4-[5-(trifluoromethyl)-1,2,4-oxadiazol-3-yl]benzamide]
≥ 80%: pest or weed control at 200 ppm (Phakopsora pachyrhizi) | inhibition at 20 ppm [1] | pest or weed control at 200 ppm [2] | pest or weed control at 200 ppm [3]

CC(C)CCNC(=O)c1ccc(-c2noc(C(F)(F)F)n2)cc1 [Compound 3a.38, N-isopentyl-4-[5-(trifluoromethyl)-1,2,4-oxadiazol-3-yl]benzamide]
≥ 80%: pest or weed control at 200 ppm (Phakopsora pachyrhizi) | inhibition at 20 ppm [1] | pest or weed control at 200 ppm [2] | pest or weed control at 200 ppm [3]

CC(C)OCCNC(=O)c1ccc(-c2noc(C(F)(F)F)n2)cc1 [Compound 3a.40, N-(2-isopropoxyethyl)-4-[5-(trifluoromethyl)-1,2,4-oxadiazol-3-yl]benzamide]
≥ 80%: pest or weed control at 200 ppm (Phakopsora pachyrhizi) | inhibition at 20 ppm [1] | pest or weed control at 200 ppm [2] | pest or weed control at 200 ppm [3]

C#CCN(C)C(=O)c1ccc(-c2noc(C(F)(F)F)n2)cc1 [Compound 3a.41, N-methyl-N-prop-2-ynyl-4-[5-(trifluoromethyl)-1,2,4-oxadiazol-3-yl]benzamide]
≥ 80%: pest or weed control at 200 ppm (Phakopsora pachyrhizi) | inhibition at 20 ppm [1] | pest or weed control at 200 ppm [2] | pest or weed control at 200 ppm [3]

CN(CCOC(F)F)C(=O)c1ccc(-c2noc(C(F)(F)F)n2)cc1 [Compound 3a.44, N-[2-(difluoromethoxy)ethyl]-N-methyl-4-[5-(trifluoromethyl)-1,2,4-oxadiazol-3-yl]benzamide]
≥ 80%: pest or weed control at 200 ppm (Phakopsora pachyrhizi) | inhibition at 20 ppm [1] | pest or weed control at 200 ppm [2] | pest or weed control at 200 ppm [3]

CCC(C)NC(=O)c1ccc(-c2noc(C(F)(F)F)n2)cc1F (stereo not shown) [Compound 3b.10, 2-fluoro-N-sec-butyl-4-[5-(trifluoromethyl)-1,2,4-oxadiazol-3-yl]benzamide]
≥ 80%: pest or weed control at 200 ppm (Phakopsora pachyrhizi) | inhibition at 20 ppm [1] | pest or weed control at 200 ppm [2] | pest or weed control at 200 ppm [3]

CCC(COC)NC(=O)c1ccc(-c2noc(C(F)(F)F)n2)cc1F (stereo not shown) [Compound 3b.11, 2-fluoro-N-[1-(methoxymethyl)propyl]-4-[5-(trifluoromethyl)-1,2,4-oxadiazol-3-yl]benzamide]
≥ 80%: pest or weed control at 200 ppm (Phakopsora pachyrhizi) | inhibition at 20 ppm [1] | pest or weed control at 200 ppm [2] | pest or weed control at 200 ppm [3]

CCOC(C)CNC(=O)c1ccc(-c2noc(C(F)(F)F)n2)cc1F (stereo not shown) [Compound 3b.12, N-(2-ethoxypropyl)-2-fluoro-4-[5-(trifluoromethyl)-1,2,4-oxadiazol-3-yl]benzamide]
≥ 80%: pest or weed control at 200 ppm (Phakopsora pachyrhizi) | inhibition at 20 ppm [1] | pest or weed control at 200 ppm [2] | pest or weed control at 200 ppm [3]

CC(C)CN(C)C(=O)c1ccc(-c2noc(C(F)(F)F)n2)cc1F [Compound 3b.14, 2-fluoro-N-isobutyl-N-methyl-4-[5-(trifluoromethyl)-1,2,4-oxadiazol-3-yl]benzamide]
≥ 80%: pest or weed control at 200 ppm (Phakopsora pachyrhizi) | inhibition at 20 ppm [1] | pest or weed control at 200 ppm [2] | pest or weed control at 200 ppm [3]

CC(=O)CC(C)(C)NC(=O)c1ccc(-c2noc(C(F)(F)F)n2)cc1F [Compound 3b.15, N-(1,1-dimethyl-3-oxo-butyl)-2-fluoro-4-[5-(trifluoromethyl)-1,2,4-oxadiazol-3-yl]benzamide]
≥ 80%: pest or weed control at 200 ppm (Phakopsora pachyrhizi) | inhibition at 20 ppm [1] | pest or weed control at 200 ppm [2] | pest or weed control at 200 ppm [3]

CCC(O)CNC(=O)c1ccc(-c2noc(C(F)(F)F)n2)cc1F (stereo not shown) [Compound 3b.16, 2-fluoro-N-(2-hydroxybutyl)-4-[5-(trifluoromethyl)-1,2,4-oxadiazol-3-yl]benzamide]
≥ 80%: pest or weed control at 200 ppm (Phakopsora pachyrhizi) | inhibition at 20 ppm [1] | pest or weed control at 200 ppm [2] | pest or weed control at 200 ppm [3]

COCCN(C)C(=O)c1ccc(-c2noc(C(F)(F)F)n2)cc1F [Compound 3b.19, 2-fluoro-N-(2-methoxyethyl)-N-methyl-4-[5-(trifluoromethyl)-1,2,4-oxadiazol-3-yl]benzamide]
≥ 80%: pest or weed control at 200 ppm (Phakopsora pachyrhizi) | inhibition at 20 ppm [1] | pest or weed control at 200 ppm [2] | pest or weed control at 200 ppm [3]
